As a reminder, the inhibition is the share of the control response that was lost under treatment. As a reminder, the EC50 is the concentration that produces a half-maximal response. By hepatocyte CLint is commonly meant the capacity of the preparation to metabolise the compound, expressed as a volume cleared per time. Higher therefore signals faster metabolism.

We go through two compounds from patent US12358890B2, “Substituted tetrahydroisoquinoline derivative as a D1 positive allosteric modulator” (UCB Biopharma SRL, priority 2019, dated 2025).

One data set addresses T1, CYP3A4 (Homo sapiens, UniProt P08684).
T1 construct: cryopreserved human microsomes (pooled donors) are divided on a 48 well collagen coated plate; from tissue; host or cells: cryopreserved human microsomes (pooled donors)
Briefly: In vitro assessment of CYP3A4 inhibition potential using cryopreserved human microsomes (midazolam substrate). In kind it is in vitro ADME. The settings on record: cryopreserved human microsomes (pooled donors), probe midazolam 2.5 μM, read-out: percentage of inhibition of CYP3A4. As to the method: The objective of the human microsome assay is to characterize the inhibition potential of Compound of formula (I) by measuring the CYP3A4 activities after its co-incubation with midazolam, a specific CYP3A4 substrate.
To this aim, cryopreserved human microsomes (pooled donors) are divided on a 48 well collagen coated plate so that the final concentration is 0.25 mg/ml. The UCB compound is then added in the wells at 1 μM and 20 μM concentration in duplicate. After 30 minutes incubation, midazolam is added at 2.5 μM concentration. After 15 minutes, an aliquot is removed and placed into an equal volume of methanol containing internal standard. The samples are centrifuged at 2500 rpm at 4° C. for 20 min. An aliquot of supernatant is diluted with deionised water and levels of 1-hydroxymidazolam is quantified using generic LC MS/MS methods. The concentrations are compared to those obtained after midazolam incubation at the same concentration but without UCB compound pre-incubation. The results are expressed as % of inhibition. […] Azamulin Assay Cryopreserved human hepatocytes (pool of 20 donors, BSU batch from Celsis/IVT/Bioreclamation) were thawed accordingly the provider's information. Viability (trypan blue exclusion) was higher than 75%. […]

The target in another data set is T2, dopamine D1 receptor (Homo sapiens, UniProt P21728).
T2 construct: host or cells: LMtk (Ltk-) mouse fibroblast cells
Briefly: cAMP HTRF potentiation assay (in the presence of EC20 dopamine). In kind it is cell-based. The following applies: for EC50: potentiation of cAMP levels with EC20 dopamine (1.1 nM), LMtk (Ltk-) mouse fibroblast cells expressing the dopamine D1 receptor; for Emax: with EC20 dopamine, dopamine maximum = 100%, read-out: Erel (relative efficacy, maximal % potentiation relative to dopamine maximal response). The text has this:
Assays have been designed to measure the effects of compounds in accordance with the present invention in the absence of dopamine (“activation assay”) and in the presence of dopamine (“potentiation assay”).
The potentiation assay measures the ability of compounds to increase the levels of cAMP produced by a low-threshold concentration of dopamine. The concentration of dopamine used ([EC20]) is designed to produce 20% stimulation compared to the maximal response (100%) seen with increasing the concentration of dopamine. To measure this potentiation increasing concentrations of the compound with the [EC20] of dopamine are incubated and the potentiation is measured as increases in cAMP production and concentration of compound which produces 50% of the potentiation of the cAMP levels is measured.
• a. METHODS D1 Cell Culture Cells were cultured at 37° C. in a humidified atmosphere of 5% CO2. Cells were grown in DMEM-F12+GlutaMAX™-I medium (GIBCO®, Invitrogen, Merelbeke, Belgium) containing 10% fetal bovine serum (BioWhittaker®, Lonza, Verviers, Belgium), 400 μg/mL Geneticin (GIBCO®), 100 IU/mL Penicillin and 100 IU/mL Streptomycin (Pen-Strep solution, BioWhittaker®). […] Using homogenous time-resolved fluoresence technology, the assay is based on competition between native cAMP produced by cells and cAMP labelled with the dye d2. The tracer binding is determined by an anti-cAMP antibody labeled with cryptate. The effects of the compound alone (agonism) was determined by performing the assay in the absence of dopamine, whilst the effect of the compound as a positive allosteric modulator (PAM) was determined in the presence of an EC20 concentration of dopamine. Cells (20,000 per well) are incubated in 384 plates for 1 hour at room temperature in a final volume of 20 μL HBSS (Lonza, with calcium, magnesium and HEPES buffer 20 mM, pH 7.4) containing: isobutyl methylxanthine (Sigma, 0.1 mM final), varying concentrations of test compound (typically 10^−9.5M to 10^−4.5M) in the presence and absence of dopamine (1.1 nM final). The reaction is then terminated and the cells lysed by adding the d2 detection reagent in lysis buffer (10 microL) and the cryptate reagent in lysis buffer (10 microl) according to manufacturer's instructions. This is then incubated for a further 60 min at room temperature and changes in HTRF fluorescent emission ratio determined according to manufacturer's instructions using an Envision plate reader (Perkin Elmer, Zaventem, Belgium) with laser excitation. All incubations were performed in duplicate and results were compared to a concentration-effect curve to dopamine. (10^−11M to 10^−6M). • c. […]
Background: TR-FRET usually uses a lanthanide donor and a delayed reading to cut background.

For data set [1], the target named is T3, human GABAA (α1β2γ2) channels (Homo sapiens, UniProt P14867+P18507+P47870).
T3 construct: expressed in transfected cells; host or cells: CHO-K1 cells
The experiment in a line: Automated patch clamp studies on the GABAA receptor (IonFlux HT, CHO-K1 cells). It is filed as cell-based. The following applies: compound at 10 μM, GABA 15 μM as agonist, read-out: percentage of inhibition of the GABAA receptor. (The patch-clamp technique gives a direct electrical read-out from membranes.)

A short description of data set [2]: Intrinsic clearance in cryopreserved human hepatocyte suspension (Azamulin Assay). It is filed as in vitro ADME. As to the method: The clearance is generally evaluated by using hepatocyte incubations and scaling calculations, assuming the main elimination pathway is metabolism, according to protocols described herein. The intrinsic clearance evaluated from hepatocytes is expressed in μl/min/10^6 cells.
To this aim, cryopreserved human microsomes (pooled donors) are divided on a 48 well collagen coated plate so that the final concentration is 0.25 mg/ml. The UCB compound is then added in the wells at 1 μM and 20 μM concentration in duplicate. After 30 minutes incubation, midazolam is added at 2.5 μM concentration. After 15 minutes, an aliquot is removed and placed into an equal volume of methanol containing internal standard. The samples are centrifuged at 2500 rpm at 4° C. for 20 min. An aliquot of supernatant is diluted with deionised water and levels of 1-hydroxymidazolam is quantified using generic LC MS/MS methods. The concentrations are compared to those obtained after midazolam incubation at the same concentration but without UCB compound pre-incubation. The results are expressed as % of inhibition. […]
Samples are analyzed by LC-MS-MS bioanalytical method to measure the concentration of UCB compound. The concentration versus time profile is fitted to determine the intrinsic clearance (Clint) expressed as μl/min/10^6 cells.

T2 sequence (P21728 whole entry, species assumed): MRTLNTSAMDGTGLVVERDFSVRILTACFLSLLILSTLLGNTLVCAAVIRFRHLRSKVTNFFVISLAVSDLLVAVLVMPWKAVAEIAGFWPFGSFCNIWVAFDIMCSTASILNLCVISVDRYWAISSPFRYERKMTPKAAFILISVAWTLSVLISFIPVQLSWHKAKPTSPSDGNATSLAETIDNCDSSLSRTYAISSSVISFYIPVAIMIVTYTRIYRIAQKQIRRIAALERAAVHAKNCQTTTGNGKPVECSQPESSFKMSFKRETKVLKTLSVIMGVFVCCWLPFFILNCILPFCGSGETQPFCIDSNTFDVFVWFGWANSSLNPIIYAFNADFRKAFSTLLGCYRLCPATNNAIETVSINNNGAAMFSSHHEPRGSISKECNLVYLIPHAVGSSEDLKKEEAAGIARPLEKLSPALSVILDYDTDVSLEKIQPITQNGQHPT
T3 sequence (P14867 28-456): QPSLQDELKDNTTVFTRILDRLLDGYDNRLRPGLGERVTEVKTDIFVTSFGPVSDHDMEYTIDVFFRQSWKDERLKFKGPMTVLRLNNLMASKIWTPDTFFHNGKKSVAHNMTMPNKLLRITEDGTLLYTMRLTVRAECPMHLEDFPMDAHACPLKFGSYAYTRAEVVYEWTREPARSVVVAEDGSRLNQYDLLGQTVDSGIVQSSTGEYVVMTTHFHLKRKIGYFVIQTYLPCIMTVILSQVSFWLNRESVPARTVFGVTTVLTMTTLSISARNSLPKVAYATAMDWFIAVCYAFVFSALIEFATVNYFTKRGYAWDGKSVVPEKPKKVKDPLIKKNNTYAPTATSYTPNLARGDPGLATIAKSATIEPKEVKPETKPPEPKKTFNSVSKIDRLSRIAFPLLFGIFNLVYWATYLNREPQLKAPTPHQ
T3 sequence (P47870 25-512 limits assumed): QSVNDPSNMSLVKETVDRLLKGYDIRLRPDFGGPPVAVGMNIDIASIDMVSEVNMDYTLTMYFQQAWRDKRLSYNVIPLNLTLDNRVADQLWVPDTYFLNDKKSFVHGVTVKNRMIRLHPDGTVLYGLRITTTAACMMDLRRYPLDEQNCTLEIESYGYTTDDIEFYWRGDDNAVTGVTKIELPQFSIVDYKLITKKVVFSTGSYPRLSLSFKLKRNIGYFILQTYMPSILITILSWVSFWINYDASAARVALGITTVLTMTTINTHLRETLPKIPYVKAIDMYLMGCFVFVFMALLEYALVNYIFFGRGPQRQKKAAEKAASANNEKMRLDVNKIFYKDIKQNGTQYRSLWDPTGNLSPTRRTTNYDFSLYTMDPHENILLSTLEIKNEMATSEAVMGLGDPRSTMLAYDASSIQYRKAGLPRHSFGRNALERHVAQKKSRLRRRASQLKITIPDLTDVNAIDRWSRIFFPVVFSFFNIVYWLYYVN
T3 sequence (P18507 40-475): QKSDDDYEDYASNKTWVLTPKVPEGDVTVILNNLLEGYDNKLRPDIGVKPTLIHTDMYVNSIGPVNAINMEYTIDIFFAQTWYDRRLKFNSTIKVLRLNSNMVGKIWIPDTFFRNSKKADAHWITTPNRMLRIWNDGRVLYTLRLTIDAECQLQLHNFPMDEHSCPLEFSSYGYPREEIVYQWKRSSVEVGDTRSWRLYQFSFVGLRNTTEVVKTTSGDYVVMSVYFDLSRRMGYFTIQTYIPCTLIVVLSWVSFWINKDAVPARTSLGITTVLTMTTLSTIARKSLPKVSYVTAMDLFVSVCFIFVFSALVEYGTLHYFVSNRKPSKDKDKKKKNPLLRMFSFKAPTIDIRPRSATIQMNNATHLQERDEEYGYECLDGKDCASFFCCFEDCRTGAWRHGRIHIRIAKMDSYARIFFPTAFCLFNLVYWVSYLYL
T1 sequence (P08684 whole entry): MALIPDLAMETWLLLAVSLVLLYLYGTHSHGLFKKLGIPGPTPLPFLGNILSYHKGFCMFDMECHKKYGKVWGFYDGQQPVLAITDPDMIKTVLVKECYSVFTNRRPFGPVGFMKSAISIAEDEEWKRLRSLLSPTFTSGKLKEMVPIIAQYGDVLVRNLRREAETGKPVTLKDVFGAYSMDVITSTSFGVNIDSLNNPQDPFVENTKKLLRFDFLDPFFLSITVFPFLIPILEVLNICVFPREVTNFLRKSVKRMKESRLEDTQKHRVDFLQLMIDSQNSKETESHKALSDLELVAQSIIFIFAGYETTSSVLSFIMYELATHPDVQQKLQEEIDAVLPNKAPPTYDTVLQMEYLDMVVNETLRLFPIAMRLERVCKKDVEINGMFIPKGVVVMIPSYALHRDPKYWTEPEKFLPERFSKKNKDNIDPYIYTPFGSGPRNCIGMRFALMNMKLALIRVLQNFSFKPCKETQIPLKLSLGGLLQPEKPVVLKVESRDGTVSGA

With `C[C@H]1c2cccc([C@](C)(O)CF)c2CCN1C(=O)Cc1c(Cl)cnc(CO)c1Cl` [compound of formula (Ia), 2-[3,5-dichloro-2-(hydroxymethyl)-4-pyridyl]-1-[(1S)-5-[(1S)-2-fluoro-1-hydroxy-1-methyl-ethyl]-1-methyl-3,4-dihydro-1H-isoquinolin-2-yl]ethanone], the inhibition at 15 min, 1 μM at CYP3A4 (compound at 1 μM) was around 20%. The inhibition at 15 min, 20 μM at CYP3A4 (compound at 20 μM) was around 28%. Besides, at dopamine D1 receptor, the EC50 was around 126 nM and the Emax is around 64%. In addition, the inhibition at 10 µM in data set [1] was around 13%. In data set [2], this compound had a hepatocyte CLint at 0.5 μM of around 8.8 µL/min/1e6 cells.
`CC1c2cccc(C(C)(O)CF)c2CCN1C(=O)Cc1c(Cl)cnc(CO)c1Cl` (stereo not shown) [(Ib)]: on dopamine D1 receptor, the concentration for a half-maximal effect (EC50) is around 200 nM and the Emax was around 61%. Further, the inhibition at 10 µM in data set [1] is around 20%. In addition, the hepatocyte CLint at 0.5 μM in data set [2] is around 9.2 µL/min/1e6 cells.
